Values after ≈ are worked out from the molar mass of the structure shown.
Assays:
K. oxytoca 496 #2 = assay: Broth microdilution MIC (strain enzymes: SHV-105, TEM-1); assay type: cell-based; settings: Klebsiella oxytoca; alone; read-out: MIC of ceftibuten (CTB)
K. pneumoniae ESBL 7 #1 = assay: Broth microdilution MIC (strain enzymes: SHV-12, TEM-1); assay type: cell-based; settings: Klebsiella pneumoniae; alone; read-out: MIC of ceftibuten (CTB)
K. pneumoniae KP 4 = assay: Broth microdilution MIC (strain enzymes: SHV-2a, SHV-5, TEM-1); assay type: cell-based; settings: Klebsiella pneumoniae, KP4; alone; read-out: MIC of ceftibuten (CTB)
K. pneumoniae BAA 1705 = assay: Broth microdilution MIC (strain KPC-producing); assay type: cell-based; settings: Klebsiella pneumoniae, BAA1705; alone; read-out: MIC of ceftibuten (CTB)
K. pneumoniae ESBL 8 #2 = assay: Broth microdilution MIC (strain enzymes: SHV-12, TEM-1); assay type: cell-based; settings: Klebsiella pneumoniae; alone; read-out: MIC of ceftibuten (CTB)
K. pneumoniae 304487 = assay: Broth microdilution MIC (strain enzymes: SHV-12,TEM-1); assay type: cell-based; settings: Klebsiella pneumoniae, 304487; alone; read-out: MIC of ceftibuten (CTB)
E. coli SI-V502 = assay: Broth microdilution MIC (strain enzymes: TEM-29, CTX-M15); assay type: cell-based; settings: Escherichia coli, SIV502; alone; read-out: MIC of ceftibuten (CTB)
E. coli BAS 1 = assay: Broth microdilution MIC (strain enzymes: none detected); assay type: cell-based; settings: Escherichia coli, BAS1; alone; read-out: MIC of ceftibuten (CTB)
E. coli SI-M004 = assay: Broth microdilution MIC (strain enzymes: SHV-2, GES-12); assay type: cell-based; settings: Escherichia coli, SIM004; alone; read-out: MIC of ceftibuten (CTB)
[1] = tested on: 21 strains of Enterobacteriaceae expressing various beta-lactamases; assay: MIC testing of thigh model strains; assay type: cell-based; settings: read-out: ceftibuten MICs
K. pneumoniae KP 3 = assay: Broth microdilution MIC (strain enzymes: SHV-1, TEM-1); assay type: cell-based; settings: Klebsiella pneumoniae, KP3; alone; read-out: MIC of ceftibuten (CTB)
[2] = tested on: three strains of E. coli expressing TEM-1+CTX-M-15, CTX-M-15, and KPC-2+SHV-12; assay: MIC against the UTI test strains; assay type: cell-based; settings: Escherichia coli; alone; read-out: Ceftibuten MICs
E. coli 25922 = assay: Broth microdilution MIC (strain enzymes: None detected); assay type: cell-based; settings: Escherichia coli, 25922; alone; read-out: MIC of ceftibuten (CTB)
E. coli SI-NO36 = assay: Broth microdilution MIC (strain enzymes: SHV-11, TEM-1); assay type: cell-based; settings: Escherichia coli, SINO36; alone; read-out: MIC of ceftibuten (CTB)
E. coli 1924 = assay: Broth microdilution MIC (strain enzymes: TEM-12); assay type: cell-based; settings: Escherichia coli, 1924; alone; read-out: MIC of ceftibuten (CTB)
E. coli ESBL 5 = assay: Broth microdilution MIC (strain enzymes: CTX-M15, TEM-1); assay type: cell-based; settings: Escherichia coli, ESBL5; alone; read-out: MIC of ceftibuten (CTB)
K. oxytoca 176877 = assay: Broth microdilution MIC (strain enzymes: SHV-105); assay type: cell-based; settings: Klebsiella oxytoca, 176877; alone; read-out: MIC of ceftibuten (CTB)
[3] = tested on: E. coli expressing TEM-1+CTX-M-15, CTX-M-15, and KPC-2+SHV-12; assay: Murine ascending UTI model, three strains; assay type: in vivo, mice; settings: mouse, in vivo
K. pneumoniae KI (KCl) = assay: Broth microdilution MIC (strain enzymes: TEM-10); assay type: cell-based; settings: Klebsiella pneumoniae; alone; read-out: MIC of ceftibuten (CTB)
E. coli 3327 = assay: Broth microdilution MIC (strain enzymes: TEM-1, SHV-12); assay type: cell-based; settings: Escherichia coli, 3327; alone; read-out: MIC of ceftibuten (CTB)
K. pneumoniae ESBL 8 #1 = assay: as above; assay type: cell-based; settings: Klebsiella pneumoniae; alone; read-out: MIC of ceftibuten (CTB)
E. coli 3174 = assay: Broth microdilution MIC (strain enzymes: TEM-1, CTXM-15); assay type: cell-based; settings: Escherichia coli, 3174; alone; read-out: MIC of ceftibuten (CTB)

Nc1nc(/C(=C/CC(=O)O)C(=O)N[C@@H]2C(=O)N3C(C(=O)O)=CCS[C@H]23)cs1 [Ceftibuten, ceftibuten, reference compound]
MIC (K. oxytoca 496 #2): 8 µg/mL
MIC (K. pneumoniae ESBL 7 #1): 32 µg/mL
MIC (K. pneumoniae KP 4): 32 µg/mL
MIC (K. pneumoniae BAA 1705): 32 µg/mL
MIC (K. pneumoniae ESBL 8 #2): 16 µg/mL
MIC (K. pneumoniae 304487): 8 µg/mL
MIC (E. coli SI-V502): 0.5 µg/mL
MIC (E. coli BAS 1): > 32 µg/mL
MIC (E. coli SI-M004): 32 µg/mL
MIC [1]: ≥ 32 µg/mL
MIC (K. pneumoniae KP 3): 2 µg/mL
MIC [2]: 8 to 64 µg/mL (≈ 19.5 to 156 µM)
MIC (E. coli 25922): 0.25 µg/mL
MIC (E. coli SI-NO36): 0.5 µg/mL
MIC (E. coli 1924): 0.5 µg/mL
MIC (E. coli ESBL 5): > 32 µg/mL
MIC (K. oxytoca 176877): 4 µg/mL
CFU reductions in the kidneys [3]: minimal CFU reductions
MIC (K. pneumoniae KI (KCl)): 1 µg/mL
MIC (E. coli 3327): 8 µg/mL
MIC (K. pneumoniae ESBL 8 #1): 16 µg/mL
MIC (E. coli 3174): 0.5 µg/mL

Source: patent US12544395B2, “Combination compositions comprising a beta-lactamase inhibitor and uses thereof” (priority 2018, dated 2026)
